Measurements reported in a compilation of properties of binary mixtures (doi:10.1051/jnwpu/20234130557).

Assay: xn = mol fraction of the nth substance listed
Conditions: 298.15 K, 101.3 kPa

CC(C)O + CCCC[n+]1cccc(C)c1.O=S(=O)([N-]S(=O)(=O)C(F)(F)F)C(F)(F)F
Conditions | electrical conductivity [S/m]
x1 = 1 | 0.27

CCCC[n+]1cccc(C)c1.O=S(=O)([N-]S(=O)(=O)C(F)(F)F)C(F)(F)F + CCO
Conditions | electrical conductivity [S/m]
x2 = 0.2427 | 0.445
x2 = 0.5689 | 0.809
x2 = 0.7583 | 1.04
x2 = 0.8896 | 0.992
x2 = 0.9196 | 0.883
x2 = 0.9371 | 0.783

CCCC[n+]1cccc(C)c1.O=S(=O)([N-]S(=O)(=O)C(F)(F)F)C(F)(F)F + CC(C)O
Conditions | electrical conductivity [S/m]
x2 = 0.0802 | 0.334
x2 = 0.1045 | 0.41
x2 = 0.1234 | 0.462
x2 = 0.1455 | 0.511
x2 = 0.177 | 0.566
x2 = 0.2193 | 0.613
x2 = 0.2497 | 0.633
x2 = 0.4682 | 0.587
x2 = 0.6921 | 0.441
x2 = 0.9362 | 0.3

CCCC[n+]1cccc(C)c1.O=S(=O)([N-]S(=O)(=O)C(F)(F)F)C(F)(F)F + CO
Conditions | electrical conductivity [S/m]
x2 = 0 | 0.273
x2 = 0.2345 | 0.453
x2 = 0.5544 | 0.951
x2 = 0.7016 | 1.38
x2 = 0.8346 | 1.93
x2 = 0.882 | 2.1
x2 = 0.9199 | 2.13
